According to patent publication US10864196B2, “Modulators of the integrated stress pathway” (Calico Life Sciences LLC, priority 2016, dated 2020):

System: HEK293T cells carrying the ATF4 luciferase reporter
Assay: ATF4-Luc assay (in vitro model of VWMD)
Assay type: cell-based
Conditions: Homo sapiens, HEK-293T, 1 μg/mL tunicamycin, 7 hours, One Glo luminescence
Method: In order to test exemplary compounds of the invention in a cellular context, a stable VWMD cell line was first constructed. The ATF4 reporter was prepared by fusing the human full-length ATF4 5′-UTR (NCBI Accession No. BC022088.2) in front of the firefly luciferase (FLuc) coding sequence lacking the initiator methionine as described in Sidrauski et al (eLife 2013). The construct was used to produce recombinant retroviruses using standard methods and the resulting viral supernatant was used to transduce HEK293T cells, which were then subsequently selected with puromycin to generate a stable cell line.
HEK293T cells carrying the ATF4 luciferase reporter were plated on polylysine coated 384-well plates (Greiner Bio-one) at 30,000 cells per well. Cells were treated the next day with 1 μg/mL tunicamycin and 200 nM of a compound of Formula (I) for 7 hours. Luminescence was measured using One Glo (Promega) as specified by the manufacturer. Cells were maintained in DMEM with L-glutamine supplemented with 10% heat-inactivated FBS (Gibco) and Antibiotic-Antimycotic solution (Gibco).
Table 2 below summarizes the EC50 data obtained using the ATF4-Luc assay for exemplary compounds of the invention.

Q: How did the EC50 turn out when `N#Cc1ccc(OCc2nnc(C34CC(NC(=O)COc5ccc(Cl)c(F)c5)(C3)C4)o2)cn1` [Compound 157, 2-(4-chloro-3-fluorophenoxy)-N-[3-(5-{[(6-cyanopyridin-3-yl)oxy]methyl}-1,3,4-oxadiazol-2-yl)bicyclo[1.1.1]pentan-1-yl]acetamide] was run?
A: 250 to 1000 nM

Q: `CC(C)c1ccc(OCc2nnc(C34CC(NC(=O)COc5ccc(Cl)c(F)c5)(C3)C4)o2)cn1` [Compound 154, 2-(4-chloro-3-fluorophenoxy)-N-{3-[5-({[6-(propan-2-yl)pyridin-3-yl]oxy}methyl)-1,3,4-oxadiazol-2-yl]bicyclo[1.1.1]pentan-1-yl}acetamide] was tested. Which EC50 did it give?
A: > 2000 nM

Q: How did the EC50 turn out when `O=C(COc1ccc(Cl)c(F)c1)NC12CC(c3nc(COc4ccc(Cl)c(F)c4)c[nH]3)(C1)C2` [Compound 168, 2-(4-chloro-3-fluorophenoxy)-N-(3-{4-[(4-chloro-3-fluorophenoxy)methyl]-1H-imidazol-2-yl}bicyclo[1.1.1]pentan-1-yl)acetamide] was run?
A: < 50 nM

Q: For `O=C(COc1ccc(Cl)c(Cl)c1)NC12CC(c3nc(COc4ccc(Cl)cc4)no3)(C1)C2` [Compound 105, N-(3-{3-[(4-chlorophenoxy)methyl]-1,2,4-oxadiazol-5-yl}bicyclo[1.1.1]pentan-1-yl)-2-(3,4-dichlorophenoxy)acetamide], which EC50 is on record?
A: < 50 nM

Q: With `O=C(COc1ccc(Cl)c(F)c1)NC12CC(c3nnc(COc4ccc(Cl)cc4)[nH]3)(C1)C2` [Compound 132, 2-(4-chloro-3-fluorophenoxy)-N-(3-{5-[(4-chlorophenoxy)methyl]-4H-1,2,4-triazol-3-yl}bicyclo[1.1.1]pentan-1-yl)acetamide] as the molecule, how does the EC50 read?
A: < 50 nM

Q: `O=C(COc1ccc(Cl)c(F)c1)NC12CC(c3nnc(COc4cncc(C(F)(F)F)c4)o3)(C1)C2` [Compound 122, 2-(4-chloro-3-fluorophenoxy)-N-{3-[5-({[5-(trifluoromethyl)pyridin-3-yl]oxy}methyl)-1,3,4-oxadiazol-2-yl]bicyclo[1.1.1]pentan-1-yl}acetamide] was tested. Which EC50 did it give?
A: 50 to 250 nM

Q: How did the EC50 turn out when `O=C(COc1ccc(Cl)cc1)NC12CC(c3nc(COc4ccc(Cl)cc4)no3)(C1)C2` [Compound 101, 2-(4-chlorophenoxy)-N-(3-{3-[(4-chlorophenoxy)methyl]-1,2,4-oxadiazol-5-yl}bicyclo[1.1.1]pentan-1-yl)acetamide] was run?
A: < 50 nM

Q: Which EC50 does the source give for `Cc1ccc(OCc2nnc(C34CC(NC(=O)COc5ccc(Cl)c(F)c5)(C3)C4)o2)cn1` [Compound 146, 2-(4-chloro-3-fluorophenoxy)-N-[3-(5-{[(6-methylpyridin-3-yl)oxy]methyl}-1,3,4-oxadiazol-2-yl)bicyclo[1.1.1]pentan-1-yl]acetamide] here?
A: 250 to 1000 nM

Q: `CCc1nc(C)ccc1OCc1nnc(C23CC(NC(=O)COc4ccc(Cl)c(F)c4)(C2)C3)o1` [Compound 153, 2-(4-chloro-3-fluorophenoxy)-N-[3-(5-{[(2-ethyl-6-methylpyridin-3-yl)oxy]methyl}-1,3,4-oxadiazol-2-yl)bicyclo[1.1.1]pentan-1-yl]acetamide] was tested. Which EC50 did it give?
A: > 2000 nM

Q: `N#Cc1ccc(Oc2nnc(C34CC(NC(=O)COc5ccc(Cl)c(F)c5)(C3)C4)o2)cn1` [Compound 119, 2-(4-chloro-3-fluorophenoxy)-N-(3-{5-[(6-cyanopyridin-3-yl)oxy]-1,3,4-oxadiazol-2-yl}bicyclo[1.1.1]pentan-1-yl)acetamide] was tested. Which EC50 did it give?
A: 250 to 1000 nM

Q: With `O=C(COc1ccc(Cl)c(F)c1)NC12CC(c3nnc(COc4ccc(C5CC5)nc4)o3)(C1)C2` [Compound 150, 2-(4-chloro-3-fluorophenoxy)-N-[3-(5-{[(6-cyclopropylpyridin-3-yl)oxy]methyl}-1,3,4-oxadiazol-2-yl)bicyclo[1.1.1]pentan-1-yl]acetamide] as the molecule, how does the EC50 read?
A: 1000 to 2000 nM

Q: Which EC50 does the source give for `O=C(COc1ccc(Cl)c(F)c1)NC12CC(c3noc(COc4ccc(Cl)cc4)n3)(C1)C2` [Compound 113, 2-(4-chloro-3-fluorophenoxy)-N-(3-{5-[(4-chlorophenoxy)methyl]-1,2,4-oxadiazol-3-yl}bicyclo[1.1.1]pentan-1-yl)acetamide] here?
A: < 50 nM

Q: For `O=C(COc1ccc(Cl)c(F)c1)NC12CC(c3nc(COc4ccc(C(F)(F)F)nc4)no3)(C1)C2` [Compound 161, 2-(4-chloro-3-fluorophenoxy)-N-{3-[3-({[6-(trifluoromethyl)pyridin-3-yl]oxy}methyl)-1,2,4-oxadiazol-5-yl]bicyclo[1.1.1]pentan-1-yl}acetamide], which EC50 is on record?
A: 50 to 250 nM

Q: Which EC50 does the source give for `COCc1nnc(C23CCC(NC(=O)COc4ccc(Cl)c(F)c4)(CC2)CC3O)o1` (stereo not shown) [Compound 165, 2-(4-chloro-3-fluorophenoxy)-N-{3-hydroxy-4-[5-(methoxymethyl)-1,3,4-oxadiazol-2-yl]bicyclo[2.2.2]octan-1-yl}acetamide] here?
A: 250 to 1000 nM

Q: For `O=C(COc1ccc(Cl)c(F)c1)NC12CC(c3nc(COc4ccnc(C(F)(F)F)c4)no3)(C1)C2` [Compound 160, 2-(4-chloro-3-fluorophenoxy)-N-{3-[3-({[2-(trifluoromethyl)pyridin-4-yl]oxy}methyl)-1,2,4-oxadiazol-5-yl]bicyclo[1.1.1]pentan-1-yl}acetamide], which EC50 is on record?
A: 50 to 250 nM

Q: Which EC50 does the source give for `O=C(COc1ccc(Cl)c(F)c1)NC12CC(c3nnc(Oc4ccc(F)cc4)o3)(C1)C2` [Compound 126, 2-(4-chloro-3-fluorophenoxy)-N-{3-[5-(4-fluorophenoxy)-1,3,4-oxadiazol-2-yl]bicyclo[1.1.1]pentan-1-yl}acetamide] here?
A: < 50 nM

Q: `O=C(COc1ccc(Cl)c(F)c1)NC12CC(c3nnc(Oc4cccc(F)c4)o3)(C1)C2` [Compound 138, 2-(4-chloro-3-fluorophenoxy)-N-{3-[5-(3-fluorophenoxy)-1,3,4-oxadiazol-2-yl]bicyclo[1.1.1]pentan-1-yl}acetamide] was tested. Which EC50 did it give?
A: 50 to 250 nM

Q: For `O=C(COc1ccc(Cl)c(F)c1)NC12CC(c3nnc(Oc4ccc(C(F)(F)F)nc4)o3)(C1)C2` [Compound 116, 2-(4-chloro-3-fluorophenoxy)-N-[3-(5-{[6-(trifluoromethyl)pyridin-3-yl]oxy}-1,3,4-oxadiazol-2-yl)bicyclo[1.1.1]pentan-1-yl]acetamide], which EC50 is on record?
A: 50 to 250 nM

Q: For `O=C(COc1ccc(Cl)c(F)c1)NC12CC(c3nc(COc4ccc(C(F)(F)F)nc4)c[nH]3)(C1)C2` [Compound 169, 2-(4-chloro-3-fluorophenoxy)-N-{3-[4-({[6-(trifluoromethyl)pyridin-3-yl]oxy}methyl)-1H-imidazol-2-yl]bicyclo[1.1.1]pentan-1-yl}acetamide], which EC50 is on record?
A: > 2000 nM

Q: How did the EC50 turn out when `O=C(COc1ccc(Cl)cc1F)NC12CC(c3nc(COc4ccc(Cl)cc4)no3)(C1)C2` [Compound 111, 2-(4-chloro-2-fluorophenoxy)-N-(3-{3-[(4-chlorophenoxy)methyl]-1,2,4-oxadiazol-5-yl}bicyclo[1.1.1]pentan-1-yl)acetamide] was run?
A: 50 to 250 nM

Q: With `Cc1cccc(OCC(=O)NC23CC(c4nc(COc5ccc(Cl)cc5)no4)(C2)C3)c1` [Compound 102, N-(3-{3-[(4-chlorophenoxy)methyl]-1,2,4-oxadiazol-5-yl}bicyclo[1.1.1]pentan-1-yl)-2-(3-methylphenoxy)acetamide] as the molecule, how does the EC50 read?
A: 1000 to 2000 nM

Q: For `O=C(COc1ccc(F)cc1)NC12CC(c3nc(COc4ccc(Cl)cc4)no3)(C1)C2` [Compound 108, N-(3-{3-[(4-chlorophenoxy)methyl]-1,2,4-oxadiazol-5-yl}bicyclo[1.1.1]pentan-1-yl)-2-(4-fluorophenoxy)acetamide], which EC50 is on record?
A: 250 to 1000 nM

Q: With `O=C(COc1ccc(Cl)c(F)c1)NC12CC(c3nnc(COc4cncc(Cl)c4)o3)(C1)C2` [Compound 148, 2-(4-chloro-3-fluorophenoxy)-N-[3-(5-{[(5-chloropyridin-3-yl)oxy]methyl}-1,3,4-oxadiazol-2-yl)bicyclo[1.1.1]pentan-1-yl]acetamide] as the molecule, how does the EC50 read?
A: 50 to 250 nM

Q: Which EC50 does the source give for `O=C(COc1ccc(Cl)c(F)c1)NC12CC(c3nnc(COc4cnc5ccoc5c4)o3)(C1)C2` [Compound 152, 2-(4-chloro-3-fluorophenoxy)-N-[3-(5-{[(furo[3,2-b]pyridin-6-yl)oxy]methyl}-1,3,4-oxadiazol-2-yl)bicyclo[1.1.1]pentan-1-yl]acetamide] here?
A: 1000 to 2000 nM

Q: For `COc1cccc(Oc2nnc(C34CC(NC(=O)COc5ccc(Cl)c(F)c5)(C3)C4)o2)c1` [Compound 136, 2-(4-chloro-3-fluorophenoxy)-N-{3-[5-(3-methoxyphenoxy)-1,3,4-oxadiazol-2-yl]bicyclo[1.1.1]pentan-1-yl}acetamide], which EC50 is on record?
A: 50 to 250 nM

Q: For `Cc1cc(OCc2nnc(C34CC(NC(=O)COc5ccc(Cl)c(F)c5)(C3)C4)o2)cnc1C#N` [Compound 156, 2-(4-chloro-3-fluorophenoxy)-N-[3-(5-{[(6-cyano-5-methylpyridin-3-yl)oxy]methyl}-1,3,4-oxadiazol-2-yl)bicyclo[1.1.1]pentan-1-yl]acetamide], which EC50 is on record?
A: 1000 to 2000 nM

Q: Which EC50 does the source give for `Cc1cc(Oc2nnc(C34CC(NC(=O)COc5ccc(Cl)c(F)c5)(C3)C4)o2)cnc1C#N` [Compound 118, 2-(4-chloro-3-fluorophenoxy)-N-(3-{5-[(6-cyano-5-methylpyridin-3-yl)oxy]-1,3,4-oxadiazol-2-yl}bicyclo[1.1.1]pentan-1-yl)acetamide] here?
A: 250 to 1000 nM

Q: `O=C(COc1cccc(F)c1)NC12CC(c3nc(COc4ccc(Cl)cc4)no3)(C1)C2` [Compound 107, N-(3-{3-[(4-chlorophenoxy)methyl]-1,2,4-oxadiazol-5-yl}bicyclo[1.1.1]pentan-1-yl)-2-(3-fluorophenoxy)acetamide] was tested. Which EC50 did it give?
A: 250 to 1000 nM
